“And” between values parts separate entries of the source, which are not always exact repeats. Equal entries are not always repeated. Structures can show the parent of a compound that is named as a salt. Where two headings read alike, the source gives them in different places.
Key:
hair loss [1] = details: external application; cited from earlier work
[2] = system: prostate glands of castrated male SD rats; assay: Anti-androgenic active effects in castrated male SD rats: weight of prostate glands after TP or DHTP inducement; type: in vivo; details: for Average weight of prostate glands / Average weight of prostate glands, prostatic hyperplasia inducement group: one week, solvent control 23.3±1.5 mg; for Weight of prostate glands after inducement with DHTP / Size of prostate glands enlarged by inducement with TP: one week oral; for Average weight of prostate glands, prostatic hyperplasia inducement group: hormone alone hypodermic (TP 10 μg or DHTP 20 μg) + vehicle oral
Description: In-Vivo Experiment for the Observation of Anti-Androgenic Active Effects of Castrated Male SD Rats (1)
(§1) Each compound is administered orally continuously for one week according to the method of administration shown in Table 1, prostate glands are removed from the rats in each group while watching, and their weights are measured.

[3] = system: prostate glands of normal male SD rats; assay: Anti-androgenic effects in normal male SD rats: weight of prostate glands after 2 weeks; type: in vivo; details: oral; for Average weight of prostate glands: normal 8-week-old male SD rats, solvent control 333.8; for Weight of prostate glands versus solvent control group: normal male SD rats
Text: In-Vivo Experiment for the Observation of Anti-Androgenic Effects of Normal Male SD Rats (2)
After the experiments are completed, the changes in the weight of prostate glands removed from normal SD rats and the changes in the weight of normal SD rats measured are shown in Tables 4 and 5 and diagrammatized in FIGS. 3 and 4.

[4] = Body weight of castrated male SD rats after one week; details: hormone alone (TP 10 μg or DHTP 20 μg) + vehicle oral, solvent control 122.1
Description: as §1

hair loss [5] = details: for Degree of efficacy: 10-20% (number of persons) / Degree of efficacy: 20-40% (number of persons) / Degree of efficacy: 40-60% (number of persons) / Degree of efficacy: 60-80% (number of persons) / Degree of efficacy: Greater than 90% (number of persons) / Degree of efficacy: No effect (number of persons) / Time taken for the efficacy to be shown: 3-5 days (number of persons) / Time taken for the efficacy to be shown: 7 days (number of persons) / Time taken for the efficacy to be shown: 14 days (number of persons) / Time taken for the efficacy to be shown: 21 days (number of persons) / Time taken for the efficacy to be shown: 28 days (number of persons) / Time taken for the efficacy to be shown: Minor effect (number of persons): Example 5 tertiary specimens, tablets three times a day (30 mg=3×10 mg)
Description: Clinical Experiment to Study Effects for the Prevention of Hair Loss, and for Hair Toning and Hair Growth (3)
The effects for the prevention of hair loss are investigated by administering the tablets thus manufactured to 5 healthy adult males who are older than 20 years old and selected to be specimens three times a day (30 mg=3×10 mg).

hair loss [6] = system: hair loss
Text: Clinical Experiment to Study Effects for the Prevention of Hair Loss, and for Hair Toning and Hair Growth (2)
The effect for the prevention of hair loss is investigated by administering the tablets thus manufactured to 20 healthy adult males who are older than 20 years old and selected to be specimens (including 5 males in the placaebo control group) once a day.

hair loss [7] = details: for Degree of efficacy: 10-20% (number of persons) / Degree of efficacy: 20-40% (number of persons) / Degree of efficacy: 40-60% (number of persons) / Degree of efficacy: 60-80% (number of persons) / Degree of efficacy: Greater than 90% (number of persons) / Degree of efficacy: No effect (number of persons) / Time taken for the efficacy to be shown: 3-5 days (number of persons) / Time taken for the efficacy to be shown: 7 days (number of persons) / Time taken for the efficacy to be shown: 14 days (number of persons) / Time taken for the efficacy to be shown: 21 days (number of persons) / Time taken for the efficacy to be shown: 28 days (number of persons) / Time taken for the efficacy to be shown: Minor effect (number of persons): Example 3 primary specimens, extruded material, 10 mg effective component once a day
Text: Clinical Experiment to Study Effects for the Prevention of Hair Loss, and for Hair Toning and Hair Growth (1)
The extruded material thus obtained is dried in the floating air layer. The therapeutical efficacy for the prevention of hair loss is experimented clinically by using thus obtained extruded material as shown in Tables 6 and 7. The objects of clinical experiments are selected based on 35 male and female healthy adults older than 20 years old who suffer from symptoms of hair loss. The therapeutical efficacy of female hair loss is also tested as females suffering from hair loss are included in the specimen population (including 5 males in the placebo control group).

hairs = details: Example 6; tablets 10 mg once a day for six months; FIG. 5A/5B
Text: Clinical Experiments to Study Effects of Epilation
The effects of epilation are investigated by administering the tablets thus manufactured once a day.

[8] = Example 4 secondary specimens, Total, tablets, 10 mg effective component once a day
[9] = Example 3, 10 mg once a day, no effects with placebo

Nc1cc(N2CCCCC2)nc(N)[n+]1[O-] [Minoxidil, 6-(1-piperidinyl-2,4-pyrimidineamine-3-oxide)]
Reported side effects (hair loss [1]): contact dermatitis, dried mouth, lowering of blood pressure, dizziness

CC(C)(C)NC(=O)[C@H]1CC[C@H]2[C@@H]3CC[C@H]4NC(=O)C=C[C@]4(C)[C@H]3CC[C@]12C [finasteride]
Average weight of prostate glands ([2]; DHTP 20 μg hypodermic + drug oral daily (finasteride 0.5 mg, composition 5 mg)): 53.1 ± 1.4 mg and 53.1 mg
Weight of prostate glands after inducement with DHTP [2]: not greatly affected
Average weight of prostate glands ([2]; TP 10 μg hypodermic + drug oral daily (finasteride 0.5 mg, composition 5 mg)): 24.5 ± 1.6 mg and 24.5 mg
Size of prostate glands enlarged by inducement with TP [2]: reduced to the normal size
Average weight of prostate glands [3]: 220.0 mg
Weight of prostate glands versus solvent control group [3]: significantly lower

CCC(=O)O[C@H]1CC[C@H]2[C@@H]3CC[C@H]4CC(=O)CC[C@]4(C)[C@H]3CC[C@]12C [DHTP, dihydrotestosterone propionate]
Average body weight, inducement group [4]: 118.7
Average weight of prostate glands, prostatic hyperplasia inducement group [2]: 58.4 ± 2.0 mg and 58.4 mg

CCC(=O)O[C@H]1CC[C@H]2[C@@H]3CCC4=CC(=O)CC[C@]4(C)[C@H]3CC[C@]12C [TP, testosterone propionate]
Average weight of prostate glands, prostatic hyperplasia inducement group [2]: 63.6 ± 3.2 mg and 63.6 mg

O=C(O)COCCN1CCN(C(c2ccccc2)c2ccc(Cl)cc2)CC1 (centres unmarked) [composition of the present invention, 2-[2-[4-[(4-chlorophenyl)phenylmethyl]-1-piperazinyl]ethoxy]-acetic acid dihydrochloride]
Color and thickness of newly produced hairs (hair loss [5]; Example 5, tablets 30 mg a day): much stronger than those of old hairs
Effects for the prevention of hair loss (hair loss [5]; Example 5, tablets 30 mg a day, 5 people): superior within one week in all of 5 people
Degree of efficacy: 10-20% (number of persons) (hair loss [5]; Male (5)): 0
Degree of efficacy: 20-40% (number of persons) (hair loss [5]; Male (5)): 0
Degree of efficacy: 40-60% (number of persons) (hair loss [5]; Male (5)): 0
Degree of efficacy: 60-80% (number of persons) (hair loss [5]; Male (5)): 2
Degree of efficacy: Greater than 90% (number of persons) (hair loss [5]; Male (5)): 3
Degree of efficacy: No effect (number of persons) (hair loss [5]; Male (5)): 0
Time taken for the efficacy to be shown: 3-5 days (number of persons) (hair loss [5]; Male (5)): 0
Time taken for the efficacy to be shown: 7 days (number of persons) (hair loss [5]; Male (5)): 5
Time taken for the efficacy to be shown: 14 days (number of persons) (hair loss [5]; Male (5)): 0
Time taken for the efficacy to be shown: 21 days (number of persons) (hair loss [5]; Male (5)): 0
Time taken for the efficacy to be shown: 28 days (number of persons) (hair loss [5]; Male (5)): 0
Time taken for the efficacy to be shown: Minor effect (number of persons) (hair loss [5]; Male (5)): 0
Degree of efficacy: 10-20% (number of persons) (hair loss [5]; Total (5)): 0
Degree of efficacy: 20-40% (number of persons) (hair loss [5]; Total (5)): 0
Degree of efficacy: 40-60% (number of persons) (hair loss [5]; Total (5)): 0
Degree of efficacy: 60-80% (number of persons) (hair loss [5]; Total (5)): 2
Degree of efficacy: Greater than 90% (number of persons) (hair loss [5]; Total (5)): 3
Degree of efficacy: No effect (number of persons) (hair loss [5]; Total (5)): 0
Time taken for the efficacy to be shown: 3-5 days (number of persons) (hair loss [5]; Total (5)): 0
Time taken for the efficacy to be shown: 7 days (number of persons) (hair loss [5]; Total (5)): 5
Time taken for the efficacy to be shown: 14 days (number of persons) (hair loss [5]; Total (5)): 0
Time taken for the efficacy to be shown: 21 days (number of persons) (hair loss [5]; Total (5)): 0
Time taken for the efficacy to be shown: 28 days (number of persons) (hair loss [5]; Total (5)): 0
Time taken for the efficacy to be shown: Minor effect (number of persons) (hair loss [5]; Total (5)): 0
Color and thickness of newly coming out hairs (hair loss [6]; Example 4, tablets 10 mg once a day): much stronger than those of old hairs
Effects for the prevention of hair loss (hair loss [6]; Example 4, tablets 10 mg once a day, 15 people, no effects with placebo): superior within three weeks in all of 15 people
Degree of efficacy: 10-20% (number of persons) (hair loss [6]; [8]): 0
Degree of efficacy: 20-40% (number of persons) (hair loss [6]; [8]): 0
Degree of efficacy: 40-60% (number of persons) (hair loss [6]; [8]): 5
Degree of efficacy: 60-80% (number of persons) (hair loss [6]; [8]): 9
Degree of efficacy: Greater than 90% (number of persons) (hair loss [6]; [8]): 1
Degree of efficacy: No effect (number of persons) (hair loss [6]; [8]): 0
Time taken for the efficacy to be shown: 3-5 days (number of persons) (hair loss [6]; [8]): 0
Time taken for the efficacy to be shown: 7 days (number of persons) (hair loss [6]; [8]): 1
Time taken for the efficacy to be shown: 14 days (number of persons) (hair loss [6]; [8]): 6
Time taken for the efficacy to be shown: 21 days (number of persons) (hair loss [6]; [8]): 8
Time taken for the efficacy to be shown: 28 days (number of persons) (hair loss [6]; [8]): 0
Time taken for the efficacy to be shown: Minor effect (number of persons) (hair loss [6]; [8]): 0
Effect of prevention of hair loss, time course (hair loss [7]; [9]): hair loss is prevented in almost all specimens in about three weeks
Effects of the prevention of hair loss in males and females (hair loss [7]; [9]): remarkable effects of the prevention of hair loss are observed both in males and females
Degree of efficacy: 10-20% (number of persons) (hair loss [7]; Female (10)): 0
Degree of efficacy: 20-40% (number of persons) (hair loss [7]; Female (10)): 0
Degree of efficacy: 40-60% (number of persons) (hair loss [7]; Female (10)): 3
Degree of efficacy: 60-80% (number of persons) (hair loss [7]; Female (10)): 6
Degree of efficacy: Greater than 90% (number of persons) (hair loss [7]; Female (10)): 0
Degree of efficacy: No effect (number of persons) (hair loss [7]; Female (10)): 1
Time taken for the efficacy to be shown: 3-5 days (number of persons) (hair loss [7]; Female (10)): 0
Time taken for the efficacy to be shown: 7 days (number of persons) (hair loss [7]; Female (10)): 1
Time taken for the efficacy to be shown: 14 days (number of persons) (hair loss [7]; Female (10)): 6
Time taken for the efficacy to be shown: 21 days (number of persons) (hair loss [7]; Female (10)): 2
Time taken for the efficacy to be shown: 28 days (number of persons) (hair loss [7]; Female (10)): 0
Time taken for the efficacy to be shown: Minor effect (number of persons) (hair loss [7]; Female (10)): 1
Degree of efficacy: 10-20% (number of persons) (hair loss [7]; Male (20)): 0
Degree of efficacy: 20-40% (number of persons) (hair loss [7]; Male (20)): 0
Degree of efficacy: 40-60% (number of persons) (hair loss [7]; Male (20)): 6
Degree of efficacy: 60-80% (number of persons) (hair loss [7]; Male (20)): 13
Degree of efficacy: Greater than 90% (number of persons) (hair loss [7]; Male (20)): 1
Degree of efficacy: No effect (number of persons) (hair loss [7]; Male (20)): 0
Time taken for the efficacy to be shown: 3-5 days (number of persons) (hair loss [7]; Male (20)): 0
Time taken for the efficacy to be shown: 7 days (number of persons) (hair loss [7]; Male (20)): 6
Time taken for the efficacy to be shown: 14 days (number of persons) (hair loss [7]; Male (20)): 11
Time taken for the efficacy to be shown: 21 days (number of persons) (hair loss [7]; Male (20)): 3
Time taken for the efficacy to be shown: 28 days (number of persons) (hair loss [7]; Male (20)): 0
Time taken for the efficacy to be shown: Minor effect (number of persons) (hair loss [7]; Male (20)): 0
Degree of efficacy: 10-20% (number of persons) (hair loss [7]; Total): 0
Degree of efficacy: 20-40% (number of persons) (hair loss [7]; Total): 0
Degree of efficacy: 40-60% (number of persons) (hair loss [7]; Total): 9
Degree of efficacy: 60-80% (number of persons) (hair loss [7]; Total): 19
Degree of efficacy: Greater than 90% (number of persons) (hair loss [7]; Total): 1
Degree of efficacy: No effect (number of persons) (hair loss [7]; Total): 1
Time taken for the efficacy to be shown: 3-5 days (number of persons) (hair loss [7]; Total): 0
Time taken for the efficacy to be shown: 7 days (number of persons) (hair loss [7]; Total): 7
Time taken for the efficacy to be shown: 14 days (number of persons) (hair loss [7]; Total): 17
Time taken for the efficacy to be shown: 21 days (number of persons) (hair loss [7]; Total): 5
Time taken for the efficacy to be shown: 28 days (number of persons) (hair loss [7]; Total): 0
Time taken for the efficacy to be shown: Minor effect (number of persons) (hair loss [7]; Total): 1
Average weight of prostate glands ([2]; DHTP 20 μg hypodermic + drug oral daily (finasteride 0.5 mg, composition 5 mg), dihydrochloride): 52.2 ± 1.1 mg and 52.2 mg
Weight of prostate glands after inducement with DHTP [2]: not greatly affected
Average weight of prostate glands ([2]; TP 10 μg hypodermic + drug oral daily (finasteride 0.5 mg, composition 5 mg), dihydrochloride): 25.1 mg
Size of prostate glands enlarged by inducement with TP [2]: reduced to the normal size
Average weight of prostate glands [3]: 226.7 mg
Weight of prostate glands versus solvent control group [3]: significantly lower
Effects of epilation (photograph, naked eyes) (hairs): considerable effects of epilation

Source: US8088775B2, “Pharmaceutical composition for treating hair loss” (priority 2004, dated 2012)
